Earlier results on 1 molecule are cited in patent US20070003613A1, “Preparations to support maintenance of acid-alkaline balance in the human body and methods directed to using same” (priority 2005, published 2007).

For the data set the following is noted: second dissociation.

In the case of `NCC(=O)O` [glycine], the “pH at which the second H+ ion is liberated” value is 9.6.
